Reference: patent EP2213288A1 (Welte, Karl, priority 2009, dated 2010)

Tests used:
[1] = system: promyelocytic leukemia cell line HL-60; assay: Myeloid differentiation of HL-60 cells
Procedure: Granulocytic differentiation was characterized by FACS analysis of cells stained with antibody specific to CD16 (Immunotools), CD15 (BD Pharmigen) or CD11b (BD Pharmigen) and by morphological assessment of Wright-Giemsa-stained cytospin slides. […] We cultured HL-60 cells in the presence of 10 ng ml^-1 human rhG-CSF(Cell systems Biotechnoogy), 10 ng ml^-1 human rhNAMPT (Phoenix Pharmaceuticals) or 0.1µM ATRA (Sigma). For the measurement of NAD^+, 0.5 M ice-cold HClO4 was added to the cells, or cell culture supernatants or plasma; after 2 min, 100µl of supernatants was collected by centrifugation at 3,000g for 5 min, was 20µl K2HPO4 (1 M) added with cooling on ice and adjusted pH to 7.2-7.4 with KOH. 50µl of supernatant was given to the reaction mixture containing 0.1 M sodiumpyrophosphate-semicarbazid (Sigma) (pH 8.8), absolute ethanol and dH2O, NAD^+ spectrophotometrically was assessed at 339 nm at room temperature (25°C) as as mean difference in absorbance before (A1) and 6 min after (A2) addition of alcohol dehydrogenase (Roche).

CD34^+ cells = assay: NAMPT inhibition (FK866) or G-CSFR knock-down in G-CSF- or NAMPT-stimulated CD34+ cells
Excerpt: NAMPT is induced by G-CSF, so it was further analyzed whether this enzyme is required for G-CSF-triggered granulopoiesis.
DNA oligonucleotides corresponding to position 642 bp to 660 bp of the human CSF3R gene sequence were chemically synthesized. These nucleotides also contained overhang sequences from a 5' BglII- and a 3'HindIII- restriction sites. The numbering of the first nucleotide of the shRNAs refers to the ATG start codon. The oligonucleotide sequences was as follows […] (Seq. ID No. 3). The oligonucleotides were inserted into the BglII/HindIII-digested pSUPER-derived plasmid to generate pSUPER-CSF3R_642 and verified the isolated clone by DNA sequencing. To generate lentiviral transgenic plasmids containing shRNA expression cassettes located in the U3 region of the […]3'-LTR pRRL,PPT.SF.DsRedEx.pre was used. pRRL.PPT.SF.DsRedEx.pre is a derivative of the standard lentiviral vector pRRL.PPT.PGK, DsRedEx.pre (kindly provided by Luigi Naldini, Milano, Italy) using an internal SFFV promoter. To generate the lentiviral CSF3R_642-SR plasmid, the pSUPER-CSF3R_642 was digested with SmaI and HincII and ligated the resulting DNA fragments (360 bp) into the SnaBI site of the pRRL.PPT.SF.DsRedEx,pre. The lentiviral plasmid encodes RFPEXPRESS as reporter gene.

[2] = system: CD34^+ bone marrow progenitor cells from healthy individuals; assay: Granulocytic/myeloid differentiation of cultured CD34+ cells from healthy individuals (FACS, qRT-PCR, ELISA, NAD+ measurement); format: cell-based, human; conditions: FACS analysis; nicotinamide 1 mM or 10 mM; lentiviral transduction MOI 1-2
Procedure: Bone marrow and peripheral blood mononuclear cells were isolated by Ficoll-Hypaque gradient centrifugation (Amersham Biosciences) and positively selected bone marrow CD34^+ and CD33^+ cells by sequential immunomagnetic labeling with corresponding magnetic cell-sorting beads (Miltenyi Biotech). Peripheral blood PMNs were isolated by Ficoll-Hypaque gradient centrifugation and by subsequent hypotonic lysis of erythrocytes in cell pellet, Cells were counted and viability was assessed by trypan blue dye exclusion. The purity of sorted CD34^+ cells, CD33^+ cells and PMNs was more than 96% as assessed by FACS analysis and by staining with May-Grünwald-Giemsa.
Purified PMNs and CD33^+ cells were cultured in RPMI-1640 medium supplemented with 1% heat-inactivated autologous human serum with or without addition of 10 ng ml^-1 of recombinant human G-CSF (rhG-CSF) (Cell Systems Biotechnology). […] For assessment of G-CSFR protein expression cells were stained with unconjugated antibody to mouse G-CSFR and secondary FITC-conjugated antibody and measured G-CSFR expression by FACS. […] G-CSF protein was measured by G-CSF-specific ELISA from R&D Systems and NAMPT protein by NAMPT specific carboxy-terminal enzyme immunometric assay (Phoenix Pharmaceuticals).

[3] = Treatment of healthy individuals with vitamin B3, blood cell analysis; format: in vivo, human
[4] = 25-50 mg kg^-1 d^-1, subjects with type 1 diabetes; cited from earlier work

Question: With `CC1=C(/C=C/C(C)=C/C=C/C(C)=C/C(=O)O)C(C)(C)CCC1` [ATRA, all-trans-retinoid acid] as the molecule, how does the “myeloid (granulocytic) differentiation of HL-60 cells” value ([1]; 10 ng ml^-1 rhG-CSF, 10 ng ml^-1 rhNAMPT or 0.1µM ATRA, or lentiviral transduction) read?
Answer: differentiates into granulocytes

Question: And the “levels of iNAD^+ as well as mRNAs of SIRT1, C/EBPα and C/EBPβ” value ([1]; compared with untreated controls)?
Answer: Elevated levels

Question: What does the source list for `O=C(/C=C/c1cccnc1)NCCCCC1CCN(C(=O)c2ccccc2)CC1` [FK866]?
Answer: cell viability and proliferation (CD34^+ cells; 1 nM FK866): no effect; G-CSF induction of C/EBPα or C/EBPβ mRNA expression and G-CSFR mRNA or protein expression (CD34^+ cells; NAMPT activity inhibited with FK866): unable to induce; G-CSF or iNAD^+ levels in G-CSF- or NAMPT-stimulated cells (CD34^+ cells; cells pretreated with FK866): no increase; G-CSF-triggered granulocytic differentiation (CD34^+ cells; pretreatment with 1 nM FK866, then G-CSF): substantially abrogated

Question: With `NC(=O)c1cccnc1` [vitamin B3, nicotinamide] as the molecule, how does the “myeloid differentiation of CD34^+ cells” value [2] read?
Answer: induced myeloid differentiation of CD34^+ cells in a dose-dependent manner

Question: What about the “increase in the neutrophilic granulocyte content” value ([3]; 10-20 mg kg^-1 d^-1, within 2 d) of the same molecule?
Answer: up to twofold

Question: And the “iNAD^+ levels in PMNs” value ([3]; compared with steady-state levels)?
Answer: Increased

Question: What about the “C/EBPα and C/EBPβ mRNA levels in bone marrow CD34^+ cells, CD33^+ cells and in peripheral blood PMNs” value ([3]; healthy individuals) of the same molecule?
Answer: upregulation

Question: And the “CD34^+ hematopoietic progenitor cells in peripheral blood” value ([3]; healthy individuals)?
Answer: mobilisation

Question: What about the “Other blood cell lineages” value ([3]; healthy individuals) of the same molecule?
Answer: unaffected

Question: And the “decline of neutrophil numbers to the physiological level after discontinuation” value ([3]; healthy individuals)?
Answer: 2-3 d

Question: What about the “time after initiation of treatment at which increased neutrophil numbers were detected” value ([3]; healthy individuals) of the same molecule?
Answer: 1 to 2 days

Question: And the “numbers of neutrophilic granulocytes” value ([3]; six healthy individuals, 10 mg per kg per d for 1 week)?
Answer: significant increases

Question: What about the adverse effects ([3]; treated healthy individuals) of the same molecule?
Answer: no adverse effects

Question: And the side effects [4]?
Answer: no side effects
